{"source": "patent US6015820A", "about": "“4-Aryl-thio-pyridin-2(1H)-ones, medicines containing them and their uses in the treatment of illnesses linked to HIV” (priority 1995, dated 2000)", "key": {"[1]": {"assay": "cytotoxicity on non-infected cells (MTT test)", "type": "cell-based", "conditions": "human", "in_short": "(§1)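 Non-infected cells incubated 5 days with compounds; viability by MTT reduction to formazan via mitochondrial dehydrogenases, read at OD540. CC50 is the concentration halving OD540.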"}, "CEM-SS cells": {"test_system": "CEM-SS cells", "assay": "cytotoxicity on non-infected cells (MTT test)", "type": "cell-based", "conditions": "Table 3; non-infected cells, MTT, 5 days", "in_short": "as §1"}, "HIV-1 IIIB": {"test_system": "HIV-1 IIIB", "assay": "anti-HIV-1 activity, HIV-1 IIIB/PBMC", "type": "cell-based", "conditions": "Human immunodeficiency virus 1, Table 4", "method": "The virus production was measured by quantifying the activity of the inverse transcriptase associated with viral particles released into the culture supernatant. In short, cells were infected with 100 TCID50 for 30 minutes; after adsorption of the virus, unbound particles were removed by two washings and the cells were cultivated in the presence of different concentrations of the compounds tested for 5 days before determining the viral production. The concentration inhibiting 50% of the viral multiplication (IC50) came from the computer plot of the median effect of the dose effect results (Chou et al. Elsevier Science Publishers, Cambridge U.K. (1985), 19-28).\nThirty two compounds according to the invention were studied for their anti-HIV-1 biological activity. […] This compound was then tested with other colonies and other cell lines (Table 4)."}, "[2]": {"assay": "cytotoxicity on MT4 cells", "type": "cell-based", "conditions": "human, Table 4, line HIV-1 IIIB/MT4", "method": "In parallel experiments, the cytotoxicity of the molecules was measured on non-infected cells, after an incubation of 5 days in the presence of these molecules, by using a […] titration (MTT test) based on the ability of the mitochondrial dehydrogenases of the living cells to reduce 3-(4,5-dimethylthiazol-2-yl)-2,5-diphenyltetrazolium bromide in formazan (Mosmann et al. J. Immunol. Methods ([…]), 65, 55-63). The concentration cytotoxic at 50% (CC50) is the concentration at which the DO540 has been reduced to half and is calculated by using the program mentioned above."}, "[3]": {"biological_target": "inverse transcriptase of HIV-1 (HIV-1 M:B_ARV2/SF2, UniProt P03369)", "assay": "inverse transcription with HIV-1 RNA as natural matrix (complementary DNA, gel)", "type": "biochemical", "conditions": "FIG. 10; compound 7c 40-400 nM", "method": "FIG. 10 illustrates the dose effect of compound 7c on the inhibition of the inverse transcriptase of HIV-1. The expected complementary DNA, 147 nucleotides long, is shown to the left of the gel (well 1). Wells 2 to 5 correspond to decreasing concentrations of compound 7c (well 2: 400 nM, well 3: 300 nM: well 4: 100 nM and well 5: 40 nM).\nThe pmCG6 plasmid containing the nucleotide fragment 1-4005 of the HIV-1 (pmal) in psP64, under the control of the promoter of the T7 bacteriophage was provided by Dr. J. L. Darlix. A strain of E.coli HB 101 (1035) recA was used for the amplification of the plasmid. After digestion of this clone with Hinc II and transcription in vitro by using the RNA T7 polymerase, RNAs were obtained from the +50 position of the pmal sequence. The transcription was carried out in vitro and the inverse transcription in the manner described by B. Bordier et al. (1992 Nucleic Acids Res. 20, 5999-6006).\nAll the compounds were dissolved in dimethyl#sulphoxide (DMSO). The test samples were prepared in the presence of the same final concentration of DMSO. IC50 is the concentration required to inhibit the activity of the IT of the recombinant HIV-1 by 50%."}, "isolated virion HIV-1LAI": {"test_system": "isolated virion HIV-1LAI", "assay": "infectivity of the isolated virion after treatment with inhibitors (HT4LacZ cells)", "type": "cell-based", "method": "H9 cells chronically infected with HIV-1LAI (10^8 /ml) were cocultivated with MT4 cells (10^8 /ml) for 48 hours in an RMPI medium supplemented by 10% of calf foetal serum (CFS). The cells were then removed by centrifugation and then the supernatant liquid was filtered (0.45 μm) to remove residual cells and cell debris.\nAfter having been incubated with the various inhibitors, the viral supernatants (200 μl) were deposited in the filtering part of a VectaSpin tube (WHATMAN) fitted with an ANAPORE membrane of porosity 0.02 μm. For 10 minutes they were subjected to centrifugation, the acceleration of which reached 6000 g at the filtering membrane. The viral residuums thereby obtained (10-15 μl ) were washed 3 times under the same conditions with 500 μl of RPMI then restored to their initial volumes with RPMI containing 10% of CFS.\nThe HT4LacZ-1 cells were kept in a DMEM medium (glucose 4.5 g/l) supplemented with 10% of calf foetal serum in the presence of Gentamycin (50 mg/l). These cells stemmed from Hela cells in which had been cloned, on the one hand the gene coding for the human CD4 so as to render them susceptible to infection by the HIV (Chesebro and Wehrly, 1988, J. Virol., 62, 3779-3788), and on the other hand the gene for β-Galactosidase which, placed under the dependent of the LTR of the HIV-1 served as a marker for the viral infection (Rocancourt et al. (1990) J. Virol. 1990 64-6, 2660-2688). When the virus infects such cells after its integration into the cellular genome, the production of the regulatory protein TAT activates the LTR of the HIV. The result is an activation of the gene of β-Galactosidase which leads to its production in the intracellular medium and more particularly in the nucleus. It is this protein that serves as a marker of the infection.\nThe evening of day 0, the HT4LacZ-1 cells were diluted at the rate of 75000 cells per ml of medium. 100 μl of this suspension was then distributed over a flat bottomed plate with 96 wells and was cultivated overnight at 37° C. (5% of CO2).\nThe morning of day 1, the supernatant liquid was removed by aspiration. Each well was then complemented with 200 μl of the viral supernatant dilutions to be tested. Each dilution was made in a DMEM medium (glucose 4.5 g/l) supplemented with 10% of CFS. The plates were then placed in an environment at 37° C. in the presence of 5% of CO2.\nAfter 48 hours of culture, the supernatant liquid was aspirated, then each well was washed 3 times in PBS before being complemented with 200 μl of developing buffer (Tris-HCl 50 mM pH=8.5, ONPG 5 mg/ml β-mercapto-ethanol 7 μl/ml Triton×100 0.05%). After 4 hours of incubation at 37° C., the optical density of each well was measured.\nThe concentration of each of the inhibitors of the IT of the HIV-1 was adjusted to 50 mM in DMSO. The later dilutions were carried out on RPMI 1640. 2 μl of suitable dilutions of each of these inhibitors were added to 198 μl of a freshly unfrozen viral suspension. After 3 hours of incubation at ambient temperature, these suspensions were filtered on 0.02 μ VecraSpin tubes, then washed 3 times with 500 μl of RPMI 1640. The viral residuums were then adjusted to 200 μL with the culture medium (RPMI-10% CFS), then tested with regard to their infectivity on HT4LacZ cells."}}, "note": "“Also recorded” adds a separate entry of the source."}
{"smiles": "CCc1c(C)[nH]c(=O)c([N+](=O)[O-])c1Sc1cc(C)cc(C)c1", "note": "[Compound 7c, 5-ethyl-6-methyl-3-nitro-4-(3', 5'-dimethylphenyl)thio-pyridin-2(1H)-one]", "values": [{"measurement": "CC50 at 120 h", "setting": "[1]; cem-ss cells, Table 4, line HIV-1 (LA1)/CEMSS", "value": "> 10", "unit": "µM"}, {"measurement": "CC50 at 120 h", "setting": "[1]; Table 2, non-infected CEM-SS cells, MTT, 5 days", "value": "> 10", "unit": "µM"}, {"measurement": "CC50", "setting": "CEM-SS cells", "value": "> 10", "unit": "µM"}, {"measurement": "IC50", "setting": "HIV-1 IIIB", "value": "< 30", "unit": "pM"}, {"measurement": "CC50 at 120 h", "setting": "[2]", "value": "> 10", "unit": "µM"}, {"measurement": "inhibition with RNA from HIV-1 as natural matrix", "setting": "[3]", "value": "strong inhibition"}, {"measurement": "activity at 0.1 µM", "setting": "isolated virion HIV-1LAI; Human immunodeficiency virus 1, 0.1 μM inhibitor, 3 h, 100 TCID50, compared with viral supernatant subjected to same treatments, mean of 1 to 4 experiments, read-out: Activity of the isolated virions after treatment", "value": 60, "unit": "%"}, {"measurement": "activity at 1 µM", "setting": "isolated virion HIV-1LAI; Human immunodeficiency virus 1, 1 μM inhibitor, 3 h, 100 TCID50, compared with viral supernatant subjected to same treatments, mean of 1 to 4 experiments, read-out: Activity of the isolated virions after treatment", "value": 1, "unit": "%"}, {"measurement": "activity at 10 µM", "setting": "isolated virion HIV-1LAI; Human immunodeficiency virus 1, 10 μM inhibitor, 3 h, 100 TCID50, compared with viral supernatant subjected to same treatments, mean of 1 to 4 experiments, read-out: Activity of the isolated virions after treatment", "value": 0, "unit": "%"}, {"measurement": "inhibition in infectivity", "setting": "isolated virion HIV-1LAI; incubation of 45 minutes, preliminary experiments", "value": "greater than 98%"}, {"measurement": "activity on the isolated virion (in words)", "setting": "isolated virion HIV-1LAI; isolated virion", "value": "truly active on the isolated virion; also recorded: capable, after having penetrated the viral particle, of inhibiting the inverse transcriptase and of suppressing the viral infectivity"}]}
